Reference: US10385103B2, “Cell-permeable (ICP)-SOCS3 recombinant protein and uses thereof” (CELLIVERY THERAPEUTICS, INC., priority 2014, dated 2019)
“Also recorded” adds a separate entry of the source.

Legend:
[1] = Solubility/yield of SOCS3 recombinant proteins expressed and purified from E. coli; assay type: physicochemical
Method: Thereafter, the recombinant protein gene-introduced E. coli was inoculated in 7 ml of LB medium, and then incubated at 37° C. overnight. The E. coli was inoculated in 700 ml of LB medium and incubated at 37° C. until OD600 reached 0.6. To this culture medium, 0.6 mM of isopropyl-β-D-thiogalactoside (IPTG, Gen Depot, USA) was added as a protein expression inducer, followed by further incubation at 37° C. for 3 hours. This culture medium was centrifuged at 4° C. and 8,000 rpm for 10 minutes and a supernatant was discarded to recover a cell pellet. The cell pellet thus recovered was suspended in a lysis buffer (100 mM NaH2PO4, 10 mM Tris-HCl, 8 M Urea, pH 8.0), and cells were disrupted by sonication (on/off time: 30 sec/30 sec, on time 2 hours, amplify 40%), and centrifuged at 15,000 rpm for 30 min to obtain a soluble fraction and an insoluble fraction.
After purification, the proteins were put in a SnakeSkin Dialysis Tubing bag (pore size: 10000 mw, Thermo scientific, USA) and then they were dialyzed by physiological buffer (DMEM). The strain lysate where protein expression was not induced, the strain lysate where protein expression was induced by addition of IPTG, and purified proteins were loaded on SDS-PAGE to analyze protein expression characteristics and expression levels (FIGS. 19 and 20).
Solubility of aMTD/SD-fused SOCS3 proteins was scored on a 5 point scale compared with that of SOCS3 proteins lacking the solubilization domain.

RAW 264.7 cells [2] = assay: Cell-permeability of FITC-labeled SOCS3 recombinant proteins (flow cytometry); assay type: cell-based; details: 10 μM FITC-labeled protein, 1 hr, 37° C.
Method: (§1) To examine cell-permeability of SOCS3 recombinant protein, SOCS3 recombinant proteins were conjugated to 5/6-fluorescein isothiocyanate (FITC). RAW 264.7 (KCLB, Seoul, South Korea) (FIG. 20) or NIH3T3 cells (KCLB, Seoul, South Korea) (FIG. 21) were treated with 10 μM FITC-labeled SOCS3 recombinant proteins and cultivated for 1 hr at 37° C.
In this regard, RAW 264.7 cells were cultured in a DMEM medium containing 10% fetal bovine serum (FBS, Hyclone, USA) and […] of 1% penicillin/streptomycin (Hyclone, USA).
(§2) After cultivation, the cells were washed three times with ice-cold PBS (Phosphate-buffered saline, Hyclone, USA) and treated with proteinase K (10 μg/mL, SIGMA, USA) to remove surface-bound proteins, and internalized proteins were measured by flow cytometry (FlowJo cytometric analysis software, Guava, Millipore, Darmstadt, Germany). Untreated cells (gray) and equimolar concentration of unconjugated FITC (FITC only, green)-treated cells were served as control (FIG. 20). Each of NIH3T3 cells was incubated for 1 hour at 37° C. with 10 μM FITC-labeled SOCS3 protein. For nuclear staining, a mixture of […] Mounting Medium (Vector laboratories, Burlingame, Calif.) and DAPI (4′,6-diamidino-2-phenylindole) was added to NIH3T3 cells, and visualized using a confocal laser microscope (LSM700, Zeiss, Germany) (FIG. 21).

NIH3T3 cells = assay: Intracellular delivery and localization of FITC-labeled SOCS3 recombinant proteins (confocal microscopy); assay type: cell-based, mouse; details: 10 μM FITC-labeled SOCS3 protein, 1 hour, 37° C.
Method: as §1, §2

STAT1 = assay: Inhibition of IFN-γ-induced STAT phosphorylation in PANC-1 cells (western blot), STAT1; assay type: cell-based; details: PANC-1, 10 ng/ml IFN-γ 15 min, 10 μM protein 2 hrs
Method: (§3) PANC-1 Cells (KCLB, Seoul, South Korea) were treated with 10 ng/ml IFN-γ (R&D systems, Abingdon, UK) for 15 min and treated with either DMEM (vehicle) or 10 μM aMTD/SD-fused SOCS3 recombinant proteins for 2 hrs. The cells were lysed in RIPA lysis buffer (Biosesang, Seongnam, Korea) containing proteinase inhibitor cocktail (Roche, Indianapolis, Ind., USA), incubated for 15 min at 4° C., and centrifuged at 13,000 rpm for 10 min at 4° C. Equal amounts of lysates were separated on 10% SDS-PAGE gels and transferred to a nitrocellulose membrane. The membranes were blocked using 5% skim milk in TBST and for western blot analysis incubated with the following antibodies: anti-phospho-STAT1 (Cell Signaling Technology, USA) and anti-phospho-STAT3 (Cell Signaling Technology, USA), then HRP conjugated anti-rabbit secondary antibody (Santacruz).

STAT3 = assay: Inhibition of IFN-γ-induced STAT phosphorylation in PANC-1 cells (western blot), STAT3; assay type: cell-based; details: PANC-1, 10 ng/ml IFN-γ 15 min, 10 μM protein 2 hrs
Method: as §3
as §3, with “(vehicle) or 1, 5, 10 μM” for “(vehicle) or 10 μM”, “following antibodies: anti-phospho-STAT3 (Cell” for “following antibodies: anti-phospho-STAT1 (Cell Signaling Technology, USA) and anti-phospho-STAT3 (Cell”

TNF-α = assay: LPS/IFN-γ-induced cytokine secretion in peritoneal macrophages (cytometric bead array), TNF-α; assay type: cell-based, C3H/HeJ mice; details: 10 μM protein; IFN-γ and LPS
Method: (§4) Peritoneal macrophages were obtained from C3H/HeJ mice (Doo-Yeol Biotech Co. Ltd. Korea) Peritoneal macrophages were incubated with 10 μM SOCS3 recombinant proteins (1:HS3, 2:HM165S3, 3:HM165S3A and 4:HM165S3B, respectively) for 1 hr at 37° C. and then stimulated them with LPS (Lipopolysaccharide)(500 ng/ml) and/or IFN-γ (100 U/ml) without removing iCP-SOCS3 proteins for 3, 6, or 9 hrs. The culture media were collected, and the extracellular levels of cytokine (TNF-α, IL-6) were measured by a cytometric bead array (BD Pharmingen, San Diego, Calif., USA) according to the manufacturer's instructions.

IL-6 = assay: LPS/IFN-γ-induced cytokine secretion in peritoneal macrophages (cytometric bead array), IL-6; assay type: cell-based, C3H/HeJ mice; details: 10 μM protein; IFN-γ and LPS
Method: as §4

HepG2 cells [3] = assay: Cell-permeability of FITC-labeled SOCS3 recombinant proteins in hepatocellular carcinoma cells (flow cytometry); assay type: cell-based, human; details: 10 μM FITC-labeled protein, 1 hr, 37° C.
Method: HepG2 cells (ATCC, Manassas, Va., USA) were seeded in a 12 well plate, grown to 90% confluence. Cells were treated with 10 μM FITC-labeled iCP-SOCS3 recombinant proteins and cultivated for 1 hr at 37° C.
After cultivation, the cells were treated with proteinase K (10 ug/mL, SIGMA, USA) and washed three times with ice-cold PBS (Phosphate-buffered saline, Hyclone, USA) to remove surface-bound proteins, and internalized proteins were measured by flow cytometry (FlowJo cytometric analysis software, Guava, Millipore, Darmstadt, Germany). Untreated cells (gray) and equimolar concentration of unconjugated FITC (FITC only, green)-treated cells were served as control (FIG. 57).

HepG2 cells [4] = assay: Induction of apoptosis, Annexin V/7-AAD staining; assay type: cell-based, human; details: example 20-2
Method: (§5) AGS cells (gastric carcinoma cell line) (American Type Culture Collection; ATCC) were seeded in a 12-well plate at a density of 1×10^5 cells/well, and then treated with 10 uM of aMTD/SD-fused SOCS3 for 14 hours. Cancer cell death was analyzed by Annexin V analysis. Annexin V/7-Aminoactinomycin D (7-AAD) staining was performed using flow cytometry according to the manufacturer's guidelines (BD Pharmingen, San Diego, Calif., USA). Briefly, cells were washed three times with ice-cold PBS. The cells were then resuspended in 100 μl of binding buffer and incubated with 1 μl of 7-AAD and 1 μl of annexin V-PE for 30 min in the dark at 37° C. Flow cytometric analysis was immediately performed using a guava easyCyte™ 8 Instrument (Merck Millipore, Darmstadt, Germany).
Annexin V/7-Aminoactinomycin D (7-AAD) staining was performed using flow cytometry according to the manufacturer's guidelines (BD Pharmingen, San Diego, Calif., USA). Briefly, 1×10^6 cells were washed three times with ice-cold PBS. The cells were then resuspended in 100 μl of binding buffer and incubated with 1 μl of 7-AAD and 1 μl of […] for 30 min in the dark at 4° C. Flow cytometric analysis was immediately performed using a guava easyCyte™ 8 Instrument (Merck Millipore, Darmstadt, Germany). In this regard, Cisplatin® (IC50: 30 μM) was used as a reference drug.
(§6) The effect of inducing apoptosis of Chang liver cells was measured in the same manner as in Example 11-2, except that as target cell lines, normal Chang liver cells and hepatocellular carcinoma cell lines, Hep3B, HepG2, Huh7, and SK-HEP-1 were used, and as a reference drug, 5-FU® (IC50: 40 μM) was used.

Hep3B cells = assay: Induction of apoptosis, Annexin V/7-AAD staining; assay type: cell-based, human; details: example 20-2
Method: as §5, §6

Huh7 cells = assay: Induction of apoptosis, Annexin V/7-AAD staining; assay type: cell-based, human; details: example 20-2
Method: as §5, §6

SK-Hep-1 cells = assay: Induction of apoptosis, Annexin V/7-AAD staining; assay type: cell-based, human; details: example 20-2
Method: as §5, §6

[5] = test system: HCCs (Hep3B, HepG2, Huh7 and SK-HEP-1); assay: Inhibition of cell cycle progression (PI staining, flow cytometry); assay type: cell-based, human; details: reference drugs
Method: To further determine the effect of iCP-SOCS3 on the tumorigenicity of hepatocellular carcinoma cells, we subsequently investigated whether iCP-SOCS3 regulates cell cycle progression in HCCs (Hep3B, HepG2, Huh7 and SK-HEP-1).
HCCs and normal cells were treated with 10 uM protein (Non-CP-SOCS3 (HS3B) and iCP-SOSC3 (HM165S3B)) for 8 hrs. After the treatment, cells were washed twice with cold PBS and re-suspended in 1 ml cold PBS, fixed in cold 70% ethanol, washed with cold PBS twice and re-suspended in PI master mix (PI 10 ug/ml (SIGMA, USA), 50 ug/ml RNase A (Invitrogen, USA) in staining buffer) at a final cell density of 2×10^5 cell/ml. The cell mixtures were incubated 30 min in the dark at 4° C. Flow cytometric analysis was immediately performed using a guava easyCyte™ 8 Instrument (Merck Millipore, Darmstadt, Germany).

[6] = read-out: IC50 (stated for reference drug); cited from earlier work
RAW 264.7 cells [7] = assay: Quantitative cell-permeability of FITC-labeled aMTD- or rPeptide-fused CRA recombinant proteins (flow cytometry); assay type: cell-based
Procedure, shortened: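 RAW 264.7 cells were exposed to 10 μM FITC-labeled recombinant proteins, consisting of a non-functional cargo fused to aMTD or rPeptide sequences, for 1 hour at 37° C. Cells were washed three times in cold PBS and treated with 0.25% tripsin/EDTA for 20 minutes at 37° C. to strip surface-bound protein, then uptake was measured by flow cytometry.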

AGS cells = assay: Induction of apoptosis by Annexin V/7-AAD staining in gastric carcinoma cells; assay type: cell-based; details: 10 uM, 14 hours
Method: as §5

In the case of “HS3: His-tagged SOCS3 recombinant protein lacking an aMTD and a SD [reference compound]”, the “solubility (tendency to precipitate)” value ([1]; expressed and purified in E. coli) is reported as “largely insoluble; also recorded: less soluble”, the “cell-permeability (protein uptake)” value (RAW 264.7 cells [2]) is reported as “did not appear to enter cells” and the “intracellular delivery and localization” value (NIH3T3 cells) is reported as “did not appear to enter cells”. The “IFN-γ-induced phosphorylation of STAT1” value (STAT1) was “STAT phosphorylation was readily detected”, the “IFN-γ-induced phosphorylation of STAT3” value (STAT3) was “STAT phosphorylation was readily detected” and the “effect on TNF-α secretion” value (TNF-α) was “unchanged”. The “effect on IL-6 secretion” value (IL-6) was “unchanged” and the “transduction into HepG2 cells” value (HepG2 cells [3]) was “did not appear to enter cells”.

For O=c1[nH]cc(F)c(=O)[nH]1 [5-FU, reference compound], the “induction of apoptosis (Annexin V), HepG2” value (HepG2 cells [4]) was “hardly induced apoptosis”, the “induction of apoptosis (Annexin V), Hep3B” value (Hep3B cells) was “hardly induced apoptosis” and the “induction of apoptosis (Annexin V), Huh7” value (Huh7 cells) was “hardly induced apoptosis”. For the same molecule, the “induction of apoptosis (Annexin V), SK-HEP-1” value (SK-Hep-1 cells) was “hardly induced apoptosis”, the “amount of subG1” value [5] was “hardly increased the amount of subG1” and the IC50 [6] was 40 µM.

With “223 (AILAVPIAVVAP; Amino acid Sequence of aMTD223) [compound 223]” the “Relative Ratio (Fold) A” value (RAW 264.7 cells [7]; cell-permeability of aMTD-fused CRA recombinant protein relative to negative control (A: rP38)) was 33.0 Fold, the “Relative Ratio (Fold) B” value (RAW 264.7 cells [7]; cell-permeability of aMTD-fused CRA recombinant protein relative to reference CPP (B: MTM12)) was 22.1 Fold and the “Relative Ratio (Fold) C” value (RAW 264.7 cells [7]; cell-permeability of aMTD-fused CRA recombinant protein relative to reference CPP (C: MTD85)) was 11.2 Fold.

B1: M165S3B: his-tag-removed aMTD165-SOCS3-SDB recombinant protein (protein)
chain: ALAVPVALAIVPVTHSKFPAAGMSRPLDTSLRLKTFSSKSEYQLVVNAVRKLQESGFYWSAVTGGEANLLLSAEPAGTFLIRDSSDQRHFFTLSVKTQSGTKNLRIQCEGGSFSLQSDPRSTQPVPRFDCVLKLVHHYMPPPGAPSFPSPPTEPSSEVPEQPSAQPLPGSPPRRAYYIYSGGEKIPLVLSRPLSSNVATLQHLCRKTVNGHLDSYEKVTQLPGPIREFLDQYDAPLMAEQSDKDVKYYTLEEIQKHKDSKSTWLILHHKVYDLTKFLEEHPGGEEVLGEQAGGDATENFEDVGHSTDARELSKTYIIGELHPDDRSKIAKPSETL
modifications: Amino acid sequence of E.coli codon usage optimized M165S3B′
notes: his-tag-removed aMTD165-SOCS3-SDB recombinant protein
With B1 the solubility/yield [1] was “high solubility/yield”, the “cell-permeability (protein uptake)” value (RAW 264.7 cells [2]) was “high cell permeability” and the “induction of apoptosis (Annexin V)” value (AGS cells) was “showed high anticancer efficacy; also recorded: efficacy equivalent to or higher than HM165S3B”.
